Source: patent publication US12685731B2, “Organic compounds” (INTRA-CELLULAR THERAPIES, INC., priority 2018, dated 2026)
Like-named read-outs stand apart in the source and are kept apart here.

Columns and labels:
serotonin transporter = serotonin transporter (Homo sapiens, UniProt P31645); assay: Receptor binding studies, serotonin transporter
[1] = tested on: dopamine receptor (e.g., D2); assay: Receptor binding studies, dopamine receptor
[2] = Measurement of parent and metabolite levels in mice (plasma and brain levels after single oral co-dosing); type: in vivo; settings: for Cmax / Tmax / AUC / concentration at […] / concentration at 0.5 h / concentration at 1 h / concentration at 2 h / concentration at 4 h: mouse, single dose oral, co-dosed; for AUC: 0.25-4 hr sampling; for concentration at […]: 0.25 hr
Protocol: The compound of Example 1 and the compound of Formula Q are co-dosed in mice (n=3), and the levels of the both compounds are studied. Procedures for the synthesis of the compound of Formula Q can be found in WO 2008/112280. […] The mean values for maximum concentration, time to maximum concentration, and Area Under the Curve (AUC) for both compounds is determined.

[3] = tested on: serotonin receptor (e.g., 5-HT2A); assay: Receptor binding studies, serotonin receptor
[4] = mean n=3, brain, read-out: Brain level
[5] = mean n=3, plasma, read-out: Plasma level

Sequence of serotonin transporter (P31645 whole entry): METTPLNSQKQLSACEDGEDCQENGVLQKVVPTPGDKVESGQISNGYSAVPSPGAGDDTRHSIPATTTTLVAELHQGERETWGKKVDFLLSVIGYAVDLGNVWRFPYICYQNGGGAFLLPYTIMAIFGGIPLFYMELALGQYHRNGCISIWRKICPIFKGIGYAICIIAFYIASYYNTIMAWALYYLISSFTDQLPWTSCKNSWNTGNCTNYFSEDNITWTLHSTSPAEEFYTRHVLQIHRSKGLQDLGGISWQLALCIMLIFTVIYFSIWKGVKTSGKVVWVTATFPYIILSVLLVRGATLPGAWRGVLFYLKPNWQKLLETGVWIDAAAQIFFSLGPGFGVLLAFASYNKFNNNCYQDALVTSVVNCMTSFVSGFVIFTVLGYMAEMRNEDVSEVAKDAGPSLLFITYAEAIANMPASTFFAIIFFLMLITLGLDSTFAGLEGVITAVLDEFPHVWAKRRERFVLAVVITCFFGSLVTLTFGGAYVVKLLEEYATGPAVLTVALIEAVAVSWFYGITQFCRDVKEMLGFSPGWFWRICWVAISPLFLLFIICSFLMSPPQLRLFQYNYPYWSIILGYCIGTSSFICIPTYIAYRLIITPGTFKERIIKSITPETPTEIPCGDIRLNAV

| Metabolic clearance compared to the compound of Formula Q ([2]; concluded from higher Cmax and AUC values) | Cmax ([2]; brain) [ng/g] | Tmax ([2]; brain) [min] | AUC ([2]; brain) [ng·h/mL] | concentration at […] [2, 4] [ng/g] | concentration at 0.5 h [2, 4] [ng/g] | concentration at 1 h [2, 4] [ng/g] | concentration at 2 h [2, 4] [ng/g] | concentration at 4 h [2, 4] [ng/g] | concentration at […] [2, 5] [ng/mL] | concentration at 0.5 h [2, 5] [ng/mL] | concentration at 1 h [2, 5] [ng/mL] | concentration at 2 h [2, 5] [ng/mL] | concentration at 4 h [2, 5] [ng/mL] | Cmax ([2]; plasma) [ng/mL] | Tmax ([2]; plasma) [min] | AUC ([2]; plasma) [ng·h/mL] | Compound | Receptor binding profile compared to the compound of Formula Q (serotonin transporter) | Receptor binding profile compared to the compound of Formula Q [1] | Receptor binding profile compared to the compound of Formula Q [3] |
| --- | --- | --- | --- | --- | --- | --- | --- | --- | --- | --- | --- | --- | --- | --- | --- | --- | --- | --- | --- | --- |
| reduced metabolic clearance | 402 | 30 | 404 | 238 | 402 | 39.4 | 67.7 | 62.1 | 30.4 | 38.1 | 11.6 | 31.4 | 16.8 | 38.1 | 30 | 94.5 | [2H]C1([2H])N(C)c2cccc3c2N([C@H]2CCN(CCCC(=O)c4ccc(F)cc4)C[C@@H]32)C1([2H])[2H] [Example 1, 1-(4-fluorophenyl)-4-((6bR,10aS)-1,1,2,2-tetradeuterio-3-methyl-2,3,6b,7,10,10a-hexahydro-1H-pyrido[3′,4′:4,5]pyrrolo[1,2,3-de]quinoxalin-8(9H)-yl) butan-1-one p-toluenesulfonate] | substantially the same receptor binding profile | substantially the same receptor binding profile | substantially the same receptor binding profile |
| – | 384 | 30 | 387 | 228 | 384 | 37.9 | 65.6 | 58.8 | 28.2 | 34.9 | 11 | 29.9 | 16.3 | 34.9 | 30 | 89.5 | CN1CCN2c3c(cccc31)[C@@H]1CN(CCCC(=O)c3ccc(F)cc3)CC[C@@H]12 [Formula Q, reference compound] | – | – | – |
